According to ChEMBL document CHEMBL2074304, “Primary active transport of peptidic endothelin antagonists by rat hepatic canalicular membrane” (J Pharmacol Exp Ther, 1999):
Square brackets hold non-standard residues; d marks the D form. Peptide text beside a SMILES is read from it. * marks the point of attachment. dGly(2-thienyl) = N[C@@H](C(=O)O)c1cccs1; Moc = COC(=O)*

Experiments:
Format in all cases: functional, cell membranes, Sprague-Dawley, Bile canalicular membrane vesicle
[1] = target: T1, ATP-binding cassette sub-family C member 2 (Rattus norvegicus, UniProt Q63120); test: TP_TRANSPORTER: inhibition of BQ-123 uptake in bile canalicular membrane vesicles from SD rat
[2] = target: T1, ATP-binding cassette sub-family C member 2; test: TP_TRANSPORTER: inhibition of BQ-485 uptake in bile canalicular membrane vesicles from SD rat
[3] = substrate: CC(C)C[C@@H]1NC(=O)[C@@H](C(C)C)NC(=O)[C@@H]2CCCN2C(=O)[C@@H](CC(=O)O)NC(=O)[C@@H](Cc2c[nH]c3ccccc23)NC1=O; test: (§1) TP_TRANSPORTER: uptake in bile canalicular membrane vesicles from SD rat
[4] = substrate: CC(C)C[C@H](NC(=O)N1CCCCCC1)C(=O)N[C@H](Cc1c[nH]c2ccccc12)C(=O)N[C@H](Cc1c[nH]c2ccccc12)C(=O)O; test: as §1
[5] = substrate: [H][C@@]12CCCN1C(=O)[C@@H](CC(=O)O)NC(=O)[C@@H](Cc1c[nH]c3ccccc13)NC(=O)[C@H](CC(C)C)NC(=O)[C@@H](c1cccs1)NC2=O; test: as §1

Question: `CC(C)C[C@@H]1NC(=O)[C@@H](C(C)C)NC(=O)[C@@H]2C[C@@H](OC(=O)[C@H](CCCCN)N(C)C)CN2C(=O)[C@@H](CC(=O)O)NC(=O)[C@@H](Cc2c[nH]c3ccccc23)NC1=O` was tested. Which Ki [1] did it give?
Answer: Its Ki is 85.4 µM.

Question: How did the Ki [2] turn out when `CC(C)C[C@@H]1NC(=O)[C@@H](C(C)C)NC(=O)[C@@H]2CCCN2C(=O)[C@@H](CC(=O)O)NC(=O)[C@@H](Cc2c[nH]c3ccccc23)NC1=O` [BQ-123] (cyclo(L[dW][dD]P[dV])) was run?
Answer: The Ki was 84.1 µM.

Question: Which Ki [1] does the source give for `CC(C)C[C@H](NC(=O)N1CCCCCC1)C(=O)N[C@H](Cc1c[nH]c2ccccc12)C(=O)NC(C)CC(=O)O` (stereo not given in full) here?
Answer: Its Ki is 40 µM.

Question: `COC(=O)n1cc(C[C@H]2NC(=O)[C@H](CC(C)C)NC(=O)[C@@H](C(C)C)NC(=O)[C@@H]3CCCN3C(=O)[C@@H](CC(=O)O)NC2=O)c2ccccc21` (cyclo(L[dW](Moc)[dD]P[dV])) was tested. Which Ki [1] did it give?
Answer: Its Ki is 54.1 µM.

Question: Which Ki [1] does the source give for `CC(C)C[C@H](NC(=O)N1CCCCCC1)C(=O)N[C@H](Cc1c[nH]c2ccccc12)C(=O)N[C@H](Cc1c[nH]c2ccccc12)C(=O)O` here?
Answer: Its Ki is 8.32 µM.

Question: For `CC(C)C[C@@H]1NC(=O)[C@@H](c2cccs2)NC(=O)[C@@H]2CCCN2C(=O)[C@@H](CC(=O)O)NC(=O)[C@@H](Cc2c[nH]c3ccccc23)NC1=O` (cyclo(L[dW][dD]P[dGly(2-thienyl)])), which Ki [1] is on record?
Answer: The Ki was 65.5 µM.

Question: How did the Ki [1] turn out when `CC(C)C[C@@H]1NC(=O)[C@@H](C(C)C)NC(=O)[C@@H]2C[C@H](OC(=O)[C@@H](N)CCCNC(=N)N)CN2C(=O)[C@@H](CC(=O)O)NC(=O)[C@@H](Cc2c[nH]c3ccccc23)NC1=O` was run?
Answer: The Ki was 1.01 µM.

B1: ATP-binding cassette sub-family C member 2 (Rattus norvegicus) (protein)
chain: MDKFCNSTFWDLSLLESPEADLPLCFEQTVLVWIPLGFLWLLAPWQLYSVYRSRTKRSSITKFYLAKQVFVVFLLILAAIDLSLALTEDTGQATVPPVRYTNPILYLCTWLLVLAVQHSRQWCVRKNSWFLSLFWILSVLCGVFQFQTLIRALLKDSKSNMAYSYLFFVSYGFQIVLLILTAFSGPSDSTQTPSVTASFLSSITFSWYDRTVLKGYKHPLTLEDVWDIDEGFKTRSVTSKFEAAMTKDLQKARQAFQRRLQKSQRKPEATLHGLNKKQSQSQDVLVLEEAKKKSEKTTKDYPKSWLIKSLFKTFHVVILKSFILKLIHDLLVFLNPQLLKLLIGFVKSSNSYVWFGYICAILMFAVTLIQSFCLQSYFQHCFVLGMCVRTTVMSSIYKKALTLSNLARKQYTIGETVNLMSVDSQKLMDATNYMQLVWSSVIQITLSIFFLWRELGPSILAGVGVMVLLIPVNGVLATKIRNIQVQNMKNKDKRLKIMNEILSGIKILKYFAWEPSFQEQVQGIRKKELKNLLRFGQLQSLLIFILQITPILVSVVTFSVYVLVDSANVLNAEKAFTSITLFNILRFPLSMLPMVTSSILQASVSVDRLERYLGGDDLDTSAIRRVSNFDKAVKFSEASFTWDPDLEATIQDVNLDIKPGQLVAVVGTVGSGKSSLVSAMLGEMENVHGHITIQGSTAYVPQQSWIQNGTIKDNILFGSEYNEKKYQQVLKACALLPDLEILPGGDMAEIGEKGINLSGGQKQRVSLARAAYQDADIYILDDPLSAVDAHVGKHIFNKVVGPNGLLAGKTRIFVTHGIHFLPQVDEIVVLGKGTILEKGSYRDLLDKKGVFARNWKTFMKHSGPEGEATVNNDSEAEDDDDGLIPTMEEIPEDAASLAMRRENSLRRTLSRSSRSSSRRGKSLKNSLKIKNVNVLKEKEKEVEGQKLIKKEFVETGKVKFSIYLKYLQAVGWWSILFIILFYGLNNVAFIGSNLWLSAWTSDSDNLNGTNNSSSHRDMRIGVFGALGLAQGICLLISTLWSIYACRNASKALHGQLLTNILRAPMRFFDTTPTGRIVNRFSGDISTVDDLLPQTLRSWMMCFFGIAGTLVMICMATPVFAIIIIPLSILYISVQVFYVATSRQLRRLDSVTKSPIYSHFSETVTGLPIIRAFEHQQRFLAWNEKQIDINQKCVFSWITSNRWLAIRLELVGNLVVFCSALLLVIYRKTLTGDVVGFVLSNALNITQTLNWLVRMTSEAETNIVAVERISEYINVENEAPWVTDKRPPADWPRHGEIQFNNYQVRYRPELDLVLKGITCNIKSGEKVGVVGRTGAGKSSLTNCLFRILESAGGQIIIDGIDVASIGLHDLRERLTIIPQDPILFSGSLRMNLDPFNKYSDEEVWRALELAHLRSFVSGLQLGLLSEVTEGGDNLSIGQRQLLCLGRAVLRKSKILVLDEATAAVDLETDSLIQTTIRKEFSQCTVITIAHRLHTIMDSDKIMVLDNGKIVEYGSPEELLSNRGSFYLMAKEAGIENVNHTEL
Question: B1 was tested. Which Km [3] did it give?
Answer: Its Km is 97.8 µM.

Question: What about the Km [4] of the same molecule?
Answer: Its Km is 6.46 µM.

Question: What about the Km [5] of the same molecule?
Answer: Its Km is 15.1 µM.
